Patent US7732475B2, “Histone deacetylase inhibitors” (Takeda San Diego, Inc., priority 2005, dated 2010)

Molecular target: HDAC2 (Homo sapiens, UniProt Q92769)
Assay: HDAC2 fluorescence inhibition assay (tBoc-Lys(Ac)-AMC)

Sequence of HDAC2 (Q92769 with tags, fused parts or gaps): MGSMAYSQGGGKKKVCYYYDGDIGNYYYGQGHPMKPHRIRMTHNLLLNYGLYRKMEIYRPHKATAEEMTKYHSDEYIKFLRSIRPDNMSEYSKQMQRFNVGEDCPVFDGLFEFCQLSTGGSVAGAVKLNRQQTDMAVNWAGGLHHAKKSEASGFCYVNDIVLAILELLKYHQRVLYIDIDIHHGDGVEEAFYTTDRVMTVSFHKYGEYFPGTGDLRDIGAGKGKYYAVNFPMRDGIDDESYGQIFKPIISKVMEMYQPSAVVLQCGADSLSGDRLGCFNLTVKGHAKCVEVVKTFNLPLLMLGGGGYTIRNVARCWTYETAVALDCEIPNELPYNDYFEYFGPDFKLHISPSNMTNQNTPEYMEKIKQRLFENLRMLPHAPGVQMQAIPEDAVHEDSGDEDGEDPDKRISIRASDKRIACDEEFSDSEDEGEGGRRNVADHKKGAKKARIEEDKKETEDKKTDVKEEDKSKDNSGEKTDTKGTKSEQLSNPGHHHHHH

IC50 [nM]	SMILES
100 to 500	Nc1ccc(-c2cccs2)cc1NC(=O)c1ccc(Cn2ncc3c(F)cc(F)cc32)cc1 [Example 113, N-(2-amino-5-(thiophen-2-yl)phenyl)-4-((4,6-difluoro-1H-indazol-1-yl)methyl)benzamide]
50 to 100	COc1ccc2c(C)nn(Cc3ccc(C(=O)Nc4cc(-c5cccs5)ccc4N)cc3)c2c1 [Example 114, N-(2-amino-5-(thiophen-2-yl)phenyl)-4-((6-methoxy-3-methyl-1H-indazol-1-yl)methyl)benzamide]
≤ 50	Cc1cnn(Cc2ccc(C(=O)Nc3cc(-c4cccs4)ccc3N)cc2)c1 [Example 115, N-(2-amino-5-(thiophen-2-yl)phenyl)-4-((4-methyl-1H-pyrazol-1-yl)methyl)benzamide]
50 to 100	COc1ccc2c(C)n(Cc3ccc(C(=O)Nc4cc(-c5cccs5)ccc4N)cc3)nc2c1 [Example 116, N-(2-amino-5-(thiophen-2-yl)phenyl)-4-((6-methoxy-3-methyl-2H-indazol-2-yl)methyl)benzamide]
50 to 100	Nc1ccccc1NC(=O)c1ccc(Cn2ncc3c(C(F)(F)F)cccc32)cc1 [Example 117, N-(2-aminophenyl)-4-((4-(trifluoromethyl)-1H-indazol-1-yl)methyl)benzamide]
50 to 100	Nc1ccccc1NC(=O)c1ccc(Cn2cc3c(C(F)(F)F)cccc3n2)cc1 [Example 118, N-(2-aminophenyl)-4-((4-(trifluoromethyl)-2H-indazol-2-yl)methyl)benzamide]
50 to 100	Nc1ccccc1NC(=O)c1ccc(Cn2ncc3cc(C(F)(F)F)ccc32)cc1 [Example 119, N-(2-aminophenyl)-4-((5-(trifluoromethyl)-1H-indazol-1-yl)methyl)benzamide]
50 to 100	Nc1ccccc1NC(=O)c1ccc(Cn2cc3cc(C(F)(F)F)ccc3n2)cc1 [Example 120, N-(2-aminophenyl)-4-((5-(trifluoromethyl)-2H-indazol-2-yl)methyl)benzamide]
≤ 50	Nc1ccccc1NC(=O)c1ccc(Cn2cc3ccc(C(F)(F)F)cc3n2)cc1 [Example 121, N-(2-aminophenyl)-4-((6-(trifluoromethyl)-2H-indazol-2-yl)methyl)benzamide]
≥ 500	Nc1ccccc1NC(=O)c1ccc(Cn2cc(C(=O)O)cn2)cc1 [Example 122, 1-(4-(2-aminophenylcarbamoyl)benzyl)-1H-pyrazole-4-carboxylic acid]
100 to 500	Cc1ccn(Cc2ccc(C(=O)Nc3ccccc3N)cc2)n1 [Example 123, N-(2-aminophenyl)-4-((3-methyl-1H-pyrazol-1-yl)methyl)benzamide]
100 to 500	Cc1cc(C)n(Cc2ccc(C(=O)Nc3ccccc3N)cc2)n1 [Example 124, N-(2-aminophenyl)-4-((3,5-dimethyl-1H-pyrazol-1-yl)methyl)benzamide]
50 to 100	CCOC(=O)c1cnn(Cc2ccc(C(=O)Nc3ccccc3N)cc2)c1 [Example 125, Ethyl 1-(4-(2-aminophenylcarbamoyl)benzyl)-1H-pyrazole-4-carboxylate]
≤ 50	Nc1ccccc1NC(=O)c1ccc(Cn2cc(C(=O)NCc3ccccn3)cn2)cc1 [Example 126, 1-(4-(2-aminophenylcarbamoyl)benzyl)-N-(pyridin-2-ylmethyl)-1H-pyrazole-4-carboxamide]
≤ 50	Nc1ccccc1NC(=O)c1ccc(Cn2cc(C(=O)Nc3ccccc3)cn2)cc1 [Example 127, 1-(4-(2-aminophenylcarbamoyl)benzyl)-N-phenyl-1H-pyrazole-4-carboxamide]
≤ 50	Nc1ccccc1NC(=O)c1ccc(Cn2cc(C(=O)NCc3ccccc3)cn2)cc1 [Example 128, 1-(4-(2-aminophenylcarbamoyl)benzyl)-N-benzyl-1H-pyrazole-4-carboxamide]
50 to 100	Nc1ccccc1NC(=O)c1ccc(Cn2cc3c(n2)CCCC3)cc1 [Example 129, N-(2-aminophenyl)-4-((4,5,6,7-tetrahydro-2H-indazol-2-yl)methyl)benzamide]
100 to 500	Nc1ccccc1NC(=O)c1ccc(Cn2ncc3c2CCCC3)cc1 [Example 130, N-(2-aminophenyl)-4-((4,5,6,7-tetrahydro-1H-indazol-1-yl)methyl)benzamide]
≥ 500	Nc1ccccc1NC(=O)c1ccc(CNc2cc[nH]n2)cc1 [Example 131, 4-((1H-pyrazol-3-ylamino)methyl)-N-(2-aminophenyl)benzamide]
≥ 500	Nc1ccccc1NC(=O)c1ccc(Cn2nccc2N)cc1 [Example 132, 4-((5-amino-1H-pyrazol-1-yl)methyl)-N-(2-aminophenyl)benzamide]
100 to 500	Nc1ccn(Cc2ccc(C(=O)Nc3ccccc3N)cc2)n1 [Example 133, 4-((3-amino-1H-pyrazol-1-yl)methyl)-N-(2-aminophenyl)benzamide]
50 to 100	CNC(=O)c1cnn(Cc2ccc(C(=O)Nc3ccccc3N)cc2)c1 [Example 134, 1-(4-(2-aminophenylcarbamoyl)benzyl)-N-methyl-1H-pyrazole-4-carboxamide]

IC50 [nM]	SMILES
50 to 100	CCNC(=O)c1cnn(Cc2ccc(C(=O)Nc3ccccc3N)cc2)c1 [Example 135, 1-(4-(2-aminophenylcarbamoyl)benzyl)-N-ethyl-1H-pyrazole-4-carboxamide]
100 to 500	CN(C)C(=O)c1cnn(Cc2ccc(C(=O)Nc3ccccc3N)cc2)c1 [Example 136, 1-(4-(2-aminophenylcarbamoyl)benzyl)-N,N-dimethyl-1H-pyrazole-4-carboxamide]
≤ 50	CC(C)NC(=O)c1cnn(Cc2ccc(C(=O)Nc3ccccc3N)cc2)c1 [Example 137, 1-(4-(2-aminophenylcarbamoyl)benzyl)-N-isopropyl-1H-pyrazole-4-carboxamide]
50 to 100	Nc1ccccc1NC(=O)c1ccc(Cn2cc(C(=O)NC3CC3)cn2)cc1 [Example 138, 1-(4-(2-aminophenylcarbamoyl)benzyl)-N-cyclopropyl-1H-pyrazole-4-carboxamide]
50 to 100	Nc1ccccc1NC(=O)c1ccc(Cn2cc(C(=O)NCC3CC3)cn2)cc1 [Example 139, 1-(4-(2-aminophenylcarbamoyl)benzyl)-N-(cyclopropylmethyl)-1H-pyrazole-4-carboxamide]
50 to 100	CN(C)CCNC(=O)c1cnn(Cc2ccc(C(=O)Nc3ccccc3N)cc2)c1 [Example 140, 1-(4-(2-aminophenylcarbamoyl)benzyl)-N-(2-(dimethylamino)ethyl)-1H-pyrazole-4-carboxamide]
50 to 100	NC(=O)c1cnn(Cc2ccc(C(=O)Nc3ccccc3N)cc2)c1 [Example 142, 1-(4-(2-aminophenylcarbamoyl)benzyl)-1H-pyrazole-4-carboxamide]
50 to 100	Nc1ccccc1NC(=O)c1ccc(Cn2cc(C(=O)NCCO)cn2)cc1 [Example 143, 1-(4-(2-aminophenylcarbamoyl)benzyl)-N-(2-hydroxyethyl)-1H-pyrazole-4-carboxamide]
≤ 50	CN(C)CCCNC(=O)c1cnn(Cc2ccc(C(=O)Nc3ccccc3N)cc2)c1 [Example 144, 1-(4-(2-aminophenylcarbamoyl)benzyl)-N-(3-(dimethylamino)propyl)-1H-pyrazole-4-carboxamide]
≤ 50	Nc1ccccc1NC(=O)c1ccc(Cn2cc(C(=O)NCc3cccnc3)cn2)cc1 [Example 145, 1-(4-(2-aminophenylcarbamoyl)benzyl)-N-(pyridin-3-ylmethyl)-1H-pyrazole-4-carboxamide]
≤ 50	Nc1ccccc1NC(=O)c1ccc(Cn2cc(C(=O)NCc3ccncc3)cn2)cc1 [Example 146, 1-(4-(2-aminophenylcarbamoyl)benzyl)-N-(pyridin-4-ylmethyl)-1H-pyrazole-4-carboxamide]
50 to 100	Nc1ccccc1NC(=O)c1ccc(Cn2cc(C(=O)NCCN3CCOCC3)cn2)cc1 [Example 147, 1-(4-(2-aminophenylcarbamoyl)benzyl)-N-(2-morpholinoethyl)-1H-pyrazole-4-carboxamide]
100 to 500	Cc1ccnn1Cc1ccc(C(=O)Nc2ccccc2N)cc1 [Example 148, N-(2-aminophenyl)-4-((5-methyl-1H-pyrazol-1-yl)methyl)benzamide]
≤ 50	CCCNC(=O)c1cnn(Cc2ccc(C(=O)Nc3ccccc3N)cc2)c1 [Example 149, 1-(4-(2-aminophenylcarbamoyl)benzyl)-N-propyl-1H-pyrazole-4-carboxamide]
≤ 50	CC(C)CNC(=O)c1cnn(Cc2ccc(C(=O)Nc3ccccc3N)cc2)c1 [Example 150, 1-(4-(2-aminophenylcarbamoyl)benzyl)-N-isobutyl-1H-pyrazole-4-carboxamide]
50 to 100	COCCNC(=O)c1cnn(Cc2ccc(C(=O)Nc3ccccc3N)cc2)c1 [Example 151, 1-(4-(2-aminophenylcarbamoyl)benzyl)-N-(2-methoxyethyl)-1H-pyrazole-4-carboxamide]
≤ 50	COCCCNC(=O)c1cnn(Cc2ccc(C(=O)Nc3ccccc3N)cc2)c1 [Example 152, 1-(4-(2-aminophenylcarbamoyl)benzyl)-N-(3-methoxypropyl)-1H-pyrazole-4-carboxamide]
≤ 50	Nc1ccccc1NC(=O)c1ccc(Cn2cc(C(=O)NCCCO)cn2)cc1 [Example 153, 1-(4-(2-aminophenylcarbamoyl)benzyl)-N-(3-hydroxypropyl)-1H-pyrazole-4-carboxamide]
≤ 50	Nc1ccccc1NC(=O)c1ccc(Cn2cc(C(=O)NCCCN3CCOCC3)cn2)cc1 [Example 154, 1-(4-(2-aminophenylcarbamoyl)benzyl)-N-(3-morpholinopropyl)-1H-pyrazole-4-carboxamide]
≤ 50	Nc1ccccc1NC(=O)c1ccc(Cn2cc(C(=O)NCCN3CCCCC3)cn2)cc1 [Example 155, 1-(4-(2-aminophenylcarbamoyl)benzyl)-N-(2-(piperidin-1-yl)ethyl)-1H-pyrazole-4-carboxamide]
50 to 100	CN1CCN(CCCNC(=O)c2cnn(Cc3ccc(C(=O)Nc4ccccc4N)cc3)c2)CC1 [Example 156, 1-(4-(2-aminophenylcarbamoyl)benzyl)-N-(3-(4-methylpiperazin-1-yl)propyl)-1H-pyrazole-4-carboxamide]
100 to 500	Nc1ccccc1NC(=O)c1ccc(Cn2ccc3cccnc32)cc1 [Example 157, 4-((1H-Pyrrolo[2,3-b]pyridin-1-yl)methyl)-N-(2-aminophenyl)benzamide]
